By DC50 is commonly meant the midpoint of the concentration-degradation curve. Read a high DC50 as a less potent degrader.

The target in series [1] is T1, GSPT1 (Homo sapiens (Human), UniProt P15170+Q96SW2). Put plainly: GSPT1 degradation in cells treated with compound (FIG. 1A). The series is classed as cell-based. Particulars: cells treated with 0.3 µM.
Target sequence in this assay (P15170 whole entry, looked up): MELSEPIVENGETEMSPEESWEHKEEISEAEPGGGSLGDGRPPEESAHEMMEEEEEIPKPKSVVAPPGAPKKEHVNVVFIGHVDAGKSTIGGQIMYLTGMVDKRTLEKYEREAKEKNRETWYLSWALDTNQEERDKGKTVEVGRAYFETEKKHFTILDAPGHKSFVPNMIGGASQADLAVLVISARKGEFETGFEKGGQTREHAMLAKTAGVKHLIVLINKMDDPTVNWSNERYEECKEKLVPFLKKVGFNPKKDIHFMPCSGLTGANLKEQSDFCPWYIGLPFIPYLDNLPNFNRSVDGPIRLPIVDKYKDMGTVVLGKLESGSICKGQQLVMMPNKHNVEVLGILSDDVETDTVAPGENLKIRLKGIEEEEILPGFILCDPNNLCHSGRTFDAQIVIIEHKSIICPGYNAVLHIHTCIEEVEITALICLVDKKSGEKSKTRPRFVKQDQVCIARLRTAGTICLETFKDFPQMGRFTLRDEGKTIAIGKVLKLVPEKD
Target sequence in this assay (Q96SW2 whole entry, looked up): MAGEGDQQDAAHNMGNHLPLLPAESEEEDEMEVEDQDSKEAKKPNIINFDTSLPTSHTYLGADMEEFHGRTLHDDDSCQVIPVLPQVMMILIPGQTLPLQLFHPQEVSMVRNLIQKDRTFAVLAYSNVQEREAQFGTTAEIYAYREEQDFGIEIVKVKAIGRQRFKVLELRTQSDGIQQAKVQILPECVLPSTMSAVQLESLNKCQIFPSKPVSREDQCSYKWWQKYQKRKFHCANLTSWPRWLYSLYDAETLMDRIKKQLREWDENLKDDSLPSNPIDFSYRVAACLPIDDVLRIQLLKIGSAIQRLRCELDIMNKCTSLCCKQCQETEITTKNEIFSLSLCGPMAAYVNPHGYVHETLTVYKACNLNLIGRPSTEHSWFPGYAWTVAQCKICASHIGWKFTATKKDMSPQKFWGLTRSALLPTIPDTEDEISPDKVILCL
Target sequence in this assay (Q16531 whole entry partner, looked up): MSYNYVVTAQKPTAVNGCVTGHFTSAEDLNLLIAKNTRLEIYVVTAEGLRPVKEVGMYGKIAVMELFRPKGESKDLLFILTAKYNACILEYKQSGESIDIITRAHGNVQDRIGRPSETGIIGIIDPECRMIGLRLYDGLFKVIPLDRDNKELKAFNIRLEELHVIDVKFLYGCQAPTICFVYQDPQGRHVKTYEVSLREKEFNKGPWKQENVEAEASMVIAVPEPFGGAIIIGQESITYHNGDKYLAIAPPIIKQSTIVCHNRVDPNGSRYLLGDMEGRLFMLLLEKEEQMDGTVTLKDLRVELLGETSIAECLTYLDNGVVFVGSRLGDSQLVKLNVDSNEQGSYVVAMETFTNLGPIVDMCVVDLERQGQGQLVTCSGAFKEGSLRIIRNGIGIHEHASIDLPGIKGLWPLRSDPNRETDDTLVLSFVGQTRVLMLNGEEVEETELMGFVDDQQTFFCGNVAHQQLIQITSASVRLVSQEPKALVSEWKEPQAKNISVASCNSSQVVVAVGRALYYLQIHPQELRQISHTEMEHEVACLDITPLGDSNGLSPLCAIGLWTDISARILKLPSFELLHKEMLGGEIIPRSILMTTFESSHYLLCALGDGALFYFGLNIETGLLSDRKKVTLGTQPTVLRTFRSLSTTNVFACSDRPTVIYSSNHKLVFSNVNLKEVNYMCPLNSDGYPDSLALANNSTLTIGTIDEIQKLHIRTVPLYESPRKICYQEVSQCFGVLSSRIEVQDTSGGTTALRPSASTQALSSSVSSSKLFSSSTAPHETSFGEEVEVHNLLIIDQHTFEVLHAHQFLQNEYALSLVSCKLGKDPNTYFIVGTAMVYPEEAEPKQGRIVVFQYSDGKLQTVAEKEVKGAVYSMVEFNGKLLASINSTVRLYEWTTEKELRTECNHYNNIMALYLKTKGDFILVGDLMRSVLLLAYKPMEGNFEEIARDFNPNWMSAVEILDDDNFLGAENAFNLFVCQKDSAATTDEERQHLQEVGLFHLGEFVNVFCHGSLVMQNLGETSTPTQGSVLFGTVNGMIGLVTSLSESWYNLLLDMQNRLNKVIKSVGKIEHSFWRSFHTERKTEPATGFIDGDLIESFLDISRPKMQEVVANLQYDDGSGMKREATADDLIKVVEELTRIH
For another series, the target named is CK1alpha (Homo sapiens (Human), UniProt P48729). The experiment in a line: CK1alpha degradation in cells treated with compound (FIG. 1A). The series is classed as cell-based. Particulars: concentrations up to 30 µM.
Chain of CK1alpha (P48729 whole entry, looked up): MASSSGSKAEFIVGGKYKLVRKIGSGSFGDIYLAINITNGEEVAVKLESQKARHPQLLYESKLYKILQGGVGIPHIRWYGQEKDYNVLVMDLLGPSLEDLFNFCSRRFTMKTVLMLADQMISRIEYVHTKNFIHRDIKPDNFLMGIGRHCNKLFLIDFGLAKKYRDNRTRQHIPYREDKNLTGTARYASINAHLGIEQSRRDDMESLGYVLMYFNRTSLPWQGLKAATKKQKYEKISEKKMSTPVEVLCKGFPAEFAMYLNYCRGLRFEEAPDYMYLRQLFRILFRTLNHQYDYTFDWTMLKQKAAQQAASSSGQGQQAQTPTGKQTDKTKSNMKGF
In series [2] the target is T1, GSPT1. Put plainly: Mass spectrometry-based proteomics analysis of a treated cancer cell line (FIG. 1B). Particulars: cancer cell line treated with compound; fold-change (log2) vs p-value.
Target sequence in this assay (P15170 whole entry, looked up): as the sequence (P15170 whole entry, looked up) above
Target sequence in this assay (Q96SW2 whole entry, looked up): as the sequence (Q96SW2 whole entry, looked up) above
Target sequence in this assay (Q16531 whole entry partner, looked up): as the sequence (Q16531 whole entry partner, looked up) above
The target of series [3] is T1, GSPT1. Put plainly: GSPT1 degradation in high N-Myc NSCLC cells (FIG. 2). As to conditions: for DC50: six hours of treatment. Format: cell-based.
Target sequence in this assay (P15170 whole entry, looked up): as the sequence (P15170 whole entry, looked up) above
Target sequence in this assay (Q96SW2 whole entry, looked up): as the sequence (Q96SW2 whole entry, looked up) above
Target sequence in this assay (Q16531 whole entry partner, looked up): as the sequence (Q16531 whole entry partner, looked up) above
Series [4] addresses GSPT1 (Homo sapiens (Human), UniProt P15170). The experiment in a line: GSPT1 degradation in tumors of treated mice (FIG. 3B). As to conditions: all three dose levels (1, 3, 6 mg/kg), compared to vehicle control. Format: in vivo, mouse.
Series [5] deals with T1, GSPT1. Put plainly: quantitative proteomics analysis in ABC1 cells. The series is classed as cell-based. Particulars: 100 nM, 6 hr. On the procedure:
Quantitative Proteomics Analysis: ABC1 cells were treated with either DMSO (2 replicates) or compound 10 at 100 nM (2 replicates) for 6 hr. Proteins were extracted with the PreOmics iST-NHS lysis buffer (#P.O.00030). The samples were then processed using the PreOmics kit following their recommended protocol with minor modifications. In brief, the proteins were reduced, alkylated and digested for 2 h at 37° C. The peptides were then labelled with TMT reagent (1:4; peptide:TMT label) (Thermo Fisher Scientific). After quenching, the peptides were purified, and the 16 samples were combined to a 1:1 ratio. […] Eluted TMT peptides were analyzed on an Orbitrap Eclipse mass spectrometer (Thermo Fisher Scientific). […] Precursors were fragmented by CID at a normalized collision energy (NCE) of 35% and analyzed in the ion trap. Following MS2, synchronous precursor selection (SPS) MS3 scans were collected by using high energy collision-induced dissociation (HCD) and fragments were analyzed using the Orbitrap (NCE 55%, AGC target 1×10^5, maximum injection time 120 ms, resolution 60,000). Protein identification and quantification were performed using Proteome Discoverer 2.4.0.305 with the SEQUEST algorithm and Uniprot human database (2021 Jan. 29, 20614 protein sequences). […] Protein relative quantification was performed using an in-house developed java notebook. […]
Target sequence in this assay (P15170 whole entry): as the sequence (P15170 whole entry, looked up) above
Target sequence in this assay (Q96SW2 whole entry): as the sequence (Q96SW2 whole entry, looked up) above
Target sequence in this assay (Q16531 2-1140 partner): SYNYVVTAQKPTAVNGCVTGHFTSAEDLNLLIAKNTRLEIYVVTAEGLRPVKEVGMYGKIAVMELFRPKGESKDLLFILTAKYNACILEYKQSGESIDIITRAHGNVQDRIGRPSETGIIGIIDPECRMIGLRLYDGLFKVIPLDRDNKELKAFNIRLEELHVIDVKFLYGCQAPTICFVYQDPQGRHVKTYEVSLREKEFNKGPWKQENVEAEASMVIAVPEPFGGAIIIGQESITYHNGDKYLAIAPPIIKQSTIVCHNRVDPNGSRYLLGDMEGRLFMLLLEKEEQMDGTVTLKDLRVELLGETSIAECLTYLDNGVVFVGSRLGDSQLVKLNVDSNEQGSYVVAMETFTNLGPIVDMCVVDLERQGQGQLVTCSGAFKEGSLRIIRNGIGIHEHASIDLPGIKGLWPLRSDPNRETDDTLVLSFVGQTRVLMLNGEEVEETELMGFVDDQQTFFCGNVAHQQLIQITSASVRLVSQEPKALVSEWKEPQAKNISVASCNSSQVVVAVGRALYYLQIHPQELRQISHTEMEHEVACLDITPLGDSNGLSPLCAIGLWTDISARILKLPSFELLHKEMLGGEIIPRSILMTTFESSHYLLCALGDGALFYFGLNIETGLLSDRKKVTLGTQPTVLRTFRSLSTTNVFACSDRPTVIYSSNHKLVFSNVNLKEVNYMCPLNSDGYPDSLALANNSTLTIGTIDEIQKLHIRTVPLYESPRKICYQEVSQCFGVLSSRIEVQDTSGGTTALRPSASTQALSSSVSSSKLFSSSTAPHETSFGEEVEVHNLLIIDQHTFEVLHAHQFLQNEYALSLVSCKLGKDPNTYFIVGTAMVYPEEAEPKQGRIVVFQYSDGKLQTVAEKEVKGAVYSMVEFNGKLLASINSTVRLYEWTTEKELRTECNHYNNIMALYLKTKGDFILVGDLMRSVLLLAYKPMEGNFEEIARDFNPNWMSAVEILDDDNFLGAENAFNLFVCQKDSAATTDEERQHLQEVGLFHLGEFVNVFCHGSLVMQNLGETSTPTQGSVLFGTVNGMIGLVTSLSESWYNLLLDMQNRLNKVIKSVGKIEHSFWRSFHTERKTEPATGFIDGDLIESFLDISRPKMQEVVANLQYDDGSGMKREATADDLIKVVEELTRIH

The subject of series [6] is NCI-H1155 cells (human non small cell lung cancer). The experiment in a line: NCI-H1155 xenograft study. The series is classed as in vivo, female BALB/c nude mice. As to the method:
For the NCI-H1155 xenograft study, cells (human non small cell lung cancer, ATCC CRL-5818) were maintained in vitro as suspension culture in ATCC-formulated DMEM:F12 Medium supplemented as recommended by the provider and kept at 37° C. in an atmosphere of 5% CO2 in air. Cells (0.5 millions) were resuspended in 0.2 mL of PBS with Matrigel (50:50) and inoculated into female BALB/c nude mice, 6-8 weeks old, and allowed to grow to 150 mm^3 in size. Mice were dosed orally with either vehicle or compound 10 at 1 or 3 mg per kilogram daily (filled squares and filled triangles, respectively) or 6 mg per kilogram for 5 continous days followed by 9 days treatment holidays (5 On-9 off) (filled inverted triangles). Compound formulations were prepared fresh daily in 5%vDMSO/95%(30% w/v HP-β-CD in water). Gemcitabine dosed at 40 mg per kilogram, IP, Q4D×5 was used as a positive control (filled rhombi). For this study, mice were dosed for 21 days with tumor volumes measured every 3 days.

Chain of GSPT1 (Homo sapiens (Human), UniProt P15170) (P15170 whole entry): as the sequence (P15170 whole entry, looked up) above
Chain of GSPT1 (Homo sapiens (Human), UniProt P15170) (Q96SW2 whole entry, further chain): as the sequence (Q96SW2 whole entry, looked up) above
Chain of GSPT1 (Homo sapiens (Human), UniProt P15170) (Q16531 2-1140 partner): as the sequence (Q16531 2-1140 partner) above

For `Cc1ccc(NC(=O)OCc2ccc3c(c2)C(=O)N(C2CCC(=O)NC2=O)C3)cc1Cl` (centres unmarked) [Compound 10], the “degradation of GSPT1” value at GSPT1 [1] is listed as “complete degradation”. Also, at CK1alpha, the “degradation of CK1alpha” value is reported as “no induction of degradation”. Also, the “GSPT1 protein change in proteomics analysis” value on GSPT1 [2] was “most statistically significant downregulated protein”. Also, the values for the DC50 at GSPT1 [3] (ABC-1 cells) and on GSPT1 [3] (NCI-H1155 cells) were 22 nM and 3 nM, respectively. Moreover, on GSPT1 [3] (FIG. 2B), the “relative levels of GSPT1 vs concentration” value is given as “concentration dependent manner”. In addition, the “extent of GSPT1 degradation” value on GSPT1 [3] (both cell lines, NCI-H1155 and ABC-1) is on record as “complete degradation”. For the same molecule, at GSPT1 [4], the “degradation of GSPT1 in tumors” value is on record as “complete degradation”. The “protein downregulation by mass spectrometry-based proteomics (FIG. 1B)” value on GSPT1 [5] was “GSPT1 was the most statistically significant downregulated protein”. Besides, the “tumor growth (FIG. 3A)” value is recorded as “tumor growth was suppressed for two weeks” in series [6] (1 mg/kg once daily, oral) and “tumor growth inhibition” in series [6] (oral administration). The “tumor size (FIG. 3A)” value in series [6] (3 mg/kg once daily, oral) was “tumor size decreased, became undetectable by day eight and remained so until the end of the study at day 21”; in series [6] (6 mg/kg five days on and nine days off, oral) it was “tumor size decreased, became undetectable by day eight and remained so until the end of the study at day 21”. For the same molecule, in series [6] (oral administration), the body weight result is “no body weight loss observed”.

(Values after patent US11912682B2, “Isoindolinone compounds” (Monte Rosa Therapeutics, Inc., priority 2021, dated 2024).)
